Counter-ions that a name gives are not always drawn.
Key:
Type in all cases: physicochemical
[1] = Stability tests of solid amorphous atorvastatin in different packages and oxygen partial pressures
Protocol: In order to make the carried-out experiments more precise, stability tests of solid amorphous atorvastatin and of several selected dosage forms were established. As to containers, polyethylene (PE) and an aluminium foil with a sealable PE layer (Al+PE) were used. Some of the stability data were determined in nitrogen atmosphere (N2) (with a partial pressure of oxygen of roughly 3 kPa).

[2] = Example 1: amorphous atorvastatin sealed in aluminium foil with oxygen absorbers, 80° C., 72 hr (HPLC)
Protocol: (§1) Amorphous atorvastatin (1 g) was sealed in a sealable aluminium foil together with the oxygen absorber Ageless® Z100 (Mitsubishi) or with the absorber of oxygen and carbon dioxide Ageless® E100 (Mitsubishi) and the sample was heated at 80° C. for 72 hr. The reference sample was prepared and heated in the same way without the use of absorbers.

[3] = Example 2: amorphous atorvastatin sealed in aluminium foil with oxygen absorbers, 40° C., 1.5 months (HPLC)
Protocol: as §1, with “40°” for “80°”, “1.5 months.” for “72 hr.”

[4] = Example 7: test of stability under reduced pressure
Protocol: A pure amorphous atorvastatin substance was close din a tempered box under air pressure of 5.5-7.5 kPa. The partial pressure of oxygen was estimated as 1.2-1.5 kPa
The measurement has given the following results:
For comparison, sample 0010903/18 was kept in a thermostat at 80° C. under normal atmospheric pressure, i.e. partial pressure of oxygen about 18 kPa for 160 hours.

[5] = Set of stress tests of atorvastatin (HPLC)
Protocol: The following experiments were carried out in order to determine the instability of atorvastatin. The purpose was to find out which factors lead to the degradation of the product. • 1. Set of stress tests. The stock solution of atorvastatin (2 ml) was gradually subjected to the following experiments: a. boil (24 hr) with 2 ml of 0.2 N hydrochloric acid, b. boil (24 hr) with 2 ml of 0.2 N acetic acid, c. boil (24 hr) with 2 ml of 0.2 N sodium hydroxide, d. boil (24 hr) with 2 ml of 4% hydrogen peroxide, e. boil (24 hr) with 2 ml of water, f. irradiation with UV radiation (5 hr), g. irradiation with visible light (24 hr), h. solid substance heated at 100° C. for 24 hr, i. solid substance subjected to UV radiation (5 hr), j. solid substance subjected to visible light (24 hr).

[6] = Oxidation of 1% atorvastatin solution in ethyl acetate-acetonitrile (1:1) at 40° C.
Protocol: In order to precisely determine the decomposition mechanism, the following experiments examining only the oxidative decomposition of atorvastatin were carried out. A recent publication/Pharmaceutical Development and Technology, 7(1), 1-32 (2002)/described a set of experiments which are suitable for the recognition of oxidation of substances and for the determination of its mechanism.
The following experiments were carried out:
a. oxidation of a 1% solution of atorvastatin in the system of ethyl acetate-acetonitrile (1:1) at 40° C. using a radical initiator (2,2′-azobiscyanopentanoic acid) at a pressure of 1 MPa of oxygen; b. oxidation of a 1% solution of atorvastatin in the system of ethyl acetate-acetonitrile (1:1) at 40° C. without a radical initiator; c. control experiment in the system of ethyl acetate-acetonitrile (1:1) at 40° C. using a radical initiator (2,2′-azobiscyanopentanoic acid) in an inert atmosphere of argon (the partial pressure of oxygen found as being about 1 kPa).

[7] = 80° C., 72 hr, oxygen absorber Ageless Z100
[8] = 80° C., 72 hr, oxygen and carbon dioxide absorber Ageless E100
[9] = 80° C., 72 hr, reference sample without absorbers
[10] = 40° C., 1.5 months, oxygen absorber Ageless Z100
[11] = 40° C., 1.5 months, oxygen and carbon dioxide absorber Ageless E100
[12] = 40° C., 1.5 months, reference sample without absorbers

## hemicalcium salt of (3R,5R) 7-[3-phenyl-4-phenylcarbamoyl-2-(4-fluorophenyl)-5-isopropylpyrrol-1-yl]-3,5-dihydroxyheptanoic acid [amorphous atorvastatin]
[1]; 0 months, entry
  Impurities: 0.21%
[1]; 3 months, 5 ° C., package 2x RE, PO 18 kPa
  Impurities: 0.39%
[1]; 3 months, 5 ° C., package PE + Al, PO 3 kPa (N2)
  Impurities: 0.34%
[1]; 3 months, 5 ° C., package PE + Al, PO 18 kPa
  Impurities: 0.34%
[1]; 3 months, 25 ° C., package 2x PE, PO 18 kPa
  Impurities: 0.77%
[1]; 3 months, 25 ° C., package PE + Al, PO 3 kPa (N2)
  Impurities: 0.43%
[1]; 3 months, 25 ° C., package PE + Al, PO 18 kPa
  Impurities: 0.63%
[1]; 6 months, 5 ° C., package 2x PE, PO 18 kPa
  Impurities: 0.83%
[1]; 6 months, 5 ° C., package PE + Al, PO 3 kPa (N2)
  Impurities: 0.44%
[1]; 6 months, 5 ° C., package PE + Al, PO 18 kPa
  Impurities: 0.71%
[2]; [7]
  Lactone of Atorvastatin: 0.19%
  Total Impurities: 0.64%
[2]; [8]
  Lactone of Atorvastatin: 0.14%
  Total Impurities: 0.60%
[2]; [9]
  Lactone of Atorvastatin: 0.33%
  Total Impurities: 1.32%
[2]; Initial
  Lactone of Atorvastatin: 0%
  Total Impurities: 0.49%
[3]; [10]
  Lactone of Atorvastatin: 0%
  Total Impurities: 0.36%
[3]; [11]
  Lactone of Atorvastatin: 0.06%
  Total Impurities: 0.46%
[3]; [12]
  Lactone of Atorvastatin: 0.22%
  Total Impurities: 1.55%
[3]; Initial
  Lactone of Atorvastatin: 0%
  Total Impurities: 0.49%
[4]; air pressure 5.5-7.5 kPa (PO 1.2-1.5 kPa), 55 hrs, 60-65 ° C.
  Total Impurities: 0.33%
[4]; air pressure 5.5-7.5 kPa (PO 1.2-1.5 kPa), 160 hrs, 80-82 ° C.
  Total Impurities: 0.37%
[4]; air pressure 5.5-7.5 kPa (PO 1.2-1.5 kPa), 23 days, 20-25 ° C.
  Total Impurities: 0.29%
[4]; air pressure 5.5-7.5 kPa (PO 1.2-1.5 kPa), 42 days, 40-42 ° C.
  Total Impurities: 0.35%
[4]; normal atmospheric pressure, PO about 18 kPa, 80° C., 160 hours
  Total Impurities: 1.92%

## CC(C)c1c(C(=O)Nc2ccccc2)c(-c2ccccc2)c(-c2ccc(F)cc2)n1CC[C@@H](O)C[C@@H](O)CC(=O)O [atorvastatin, hemicalcium salt of (3R,5R) 7-[3-phenyl-4-phenylcarbamoyl-2-(4-fluorophenyl)-5-isopropylpyrrol-1-yl]-3,5-dihydroxyheptanoic acid]
[5]; 5 hr under UV in water
  Content of Atorvastatin: 64.3%
[5]; solid substance 5 hr, UV
  Content of Atorvastatin: 99.3%
[5]; solid substance 24 hr, 100° C.
  Content of Atorvastatin: 96.3%
[5]; solid substance 24 hr, visible light
  Content of Atorvastatin: 96.5%
[5]; solution, 24 hr in the light (visible)
  Content of Atorvastatin: 104.5%
[5]; stock solution, 24 hr boil in 0.1 N AcOH
  Content of Atorvastatin: 83.2%
[5]; stock solution, 24 hr boil in 0.1 N HCl
  Content of Atorvastatin: 2.1%
[5]; stock solution, 24 hr boil in 0.1 N NaOH
  Content of Atorvastatin: 72.0%
[5]; stock solution, 24 hr boil in 2% H2O2
  Content of Atorvastatin: 54.8%
[5]; stock solution, 24 hr boil in water
  Content of Atorvastatin: 88.4%
[6]; 0 hours, entry sample
  Impurities: 0.49%
[6]; 24 hours, radical initiator no, PO 1 MPa, 40° C.
  Impurities: 9.27%
[6]; 24 hours, radical initiator yes, PO 0.001 MPa (argon), 40° C.
  Impurities: 0.98%
[6]; 24 hours, radical initiator yes, PO 1 MPa, 40° C.
  Impurities: 6.42%
[6]; 48 hours, radical initiator yes, PO 0.001 MPa (argon), 40° C.
  Impurities: 1.38%
[6]; 48 hours, radical initiator yes, PO 1 MPa, 40° C.
  Impurities: 24.37%
[6]; 72 hours, radical initiator yes, PO 1 MPa, 40° C.
  Impurities: 30.93%
